Source: patent US20210299079A1, “MONOMETHYL FUMARATE-CARRIER CONJUGATES AND METHODS OF THEIR USE” (Flagship Pioneering Innovations V, Inc., priority 2018, published 2021)
Counter-ions that a name gives are not always drawn.

Experiments:
[1] = male, Sprague Dawley, rat, in vivo, po
Procedure: The amount of compound dosed was normalized to provide approximately equimolar amounts of monomethylfumarate. Approximately 150 μL whole blood samples were collected at 15 and 30 min; and 1, 2, 4, 8, and 24 h post-dosing from the jugular or tail vein. 100 μL of samples were added to K2EDTA tubes pre-filled with 300 μL of 100 mM tiopronin in 100 mM ammonium bicarbonate (pH 9.0). Samples were vortex-mixed for approximately 5 min at ambient temperature in order to trap free fractions of monomethyl fumarate.

[2] = system: MIP-1α; experiment: Neutrophil Chemokine Production Assay: MIP-1α; type: cell-based; settings: human neutrophils, 12 h
Procedure: (§1) A volume 25 mL of human blood was layered over 15 mL of Histopaque®-1077 and centrifuged at 500 g, R^T, for 30 min with no break applied to the centrifuge. The PBMC band and Histopaque®-1077 layer were removed leaving behind the bottom red layer which was mixed with 40 mL of 1× red blood cell (RBC) lysis buffer (Sigma-Aldrich) was and split into two 50 mL tubes. The volume for both fractions was brought to 50 mL with RBC lysis buffer, mixed by inversion, and then incubated at RT for 10 min. Solutions were centrifuged at 250 g, for 10 min at RT and the supernatant liquids removed. The reddish pellets were re-suspended in 1 mL of RBC lysis buffer and combined. The cell suspension was incubated for 5 min at RT in RBC lysis buffer. After incubation 45 mL of Hanks Balanced Salt Solution with no calcium, magnesium or phenol red (HBSS—) was added, the cell suspension was spun (250 g for 10 min at RT), and supernatant liquids were removed. The white pellet was re-suspended in 1 mL of HBSS—, and cell counts were determined. The neutrophil cell suspension was brought to a concentration of 1.11e6 cells/mL in RPMI complete (Sigma-Aldrich), and 180 μL of cell suspension was transferred to all wells within a sterile 96-well tissue culture treated plate resulting in 2.0×10^5 cells/well. […] After incubation, 10 μL of 2 μg/mL LPS solution in RPMI complete was added to each well except for control wells, which received an additional 10 μL of media. Cells were incubated for 12 h (37° C., 5% CO2), after which plates were centrifuged at 250 g, RT, for 5 min and supernatant liquids were obtained and stored at −80° C. until analyzed via Luminex® Multiplex Assay for various chemokines and cytokines. Three data points were acquired from two different blood donors and averaged.

[3] = system: naïve CD4+ T cells; experiment: Human Regulatory T Cell Differentiation Assay; type: cell-based; settings: 6 days; for Cell viability % DMSO: viability dye
Procedure: Peripheral blood mononuclear cells (PBMCs) from whole blood donated by health volunteers were separated by Ficoll-Paque gradient centrifugation and naïve CD4^+ T cells were subsequently isolated using magnet beads (EasySep™ Human Naïve CD4^+ T Cell Isolation Kit, Cambridge, Mass.). For regulatory T cell (Treg) differentiation assay, naïve CD4^+ T cells were cultured (1-10×10^4 cells) in CTS OpTmizer medium for 6 days and stimulated with 5 ng/ml TGF-β, 100 U/ml IL-2, and ImmunoCult™ Human […] T Cell Activator; Stemcell #10990) with/without our Compounds. Cell viability was determined using a viability dye (eBioscience Fixable Viability Dye eFluor 780: ThermoFisher 65-0865-14) at 1:500 dilution. The cells were gated for Treg, defined as Live, CD11c^−, CD14^−, CD19^−, CD8^−, CD4^+, CD3^+, CD25^+, FOXP3^+. Percent (%) Tregs were calculated as percentage of CD4^+, CD25^+, FOXP3^+ cells over total CD4^+ T cells. Statistical analysis was performed with GraphPad Prism Software Using One-Way ANOVA.

[4] = system: IL-8; experiment: Neutrophil Chemokine Production Assay: IL-8; type: cell-based; settings: human neutrophils, 12 h
Procedure: as §1

[5] = system: Caco-2 colonocytes; experiment: Human Caco-2 Barrier Integrity Assay, Study 1; type: cell-based; settings: Caco-2, + cytokines (TNFα, IFNγ, IL-1β), 48 hours
Procedure: Caco-2 colonocytes were maintained at 37° C. and 5% CO2 in Dulbecco's Modified Eagle Medium (DMEM) and supplemented with 10% FBS, 1% NEAA, 1% penicillin-streptomycin. At 70-80% confluency, cells were trypsinized and seeded in 0.4 cm^2 transwell collagen I coated membranes with supplemented DMEM in both apical and basolateral compartments. […] After 48 hours, TEER readings were taken again and viability was measured by CellTiter 96® AQueous One Solution Cell Proliferation Assay (Promega).

[6] = system: MIP-1β; experiment: Neutrophil Chemokine Production Assay: MIP-1β; type: cell-based; settings: human neutrophils, 12 h
Procedure: as §1

[7] = system: TNFα; experiment: Cytokine Release from Human PBMCs: TNFα; type: cell-based; settings: LPS, 24 hours, Concentration 100 μM
Procedure: (§2) Human donor blood (8 mL) was collected in sodium citrate CPT tubes and centrifuged at 1,600×g for 20 minutes at room temperature. Buffy coat containing PBMCs was collected and transferred to a 50 mL conical tube containing 30 mL of RPMI-1640 medium at room temperature (supplemented with penicillin-streptomycin). PBMCs samples were centrifuged at 400×g for 10 minutes at 10° C. The pelleted PBMCs were washed twice in 10 ml of RPMI-1640 medium (supplemented with penicillin-streptomycin), then resuspended in RPMI-1640 medium (supplemented with penicillin-streptomycin, fetal bovine serum, and L-Glutamine). PBMCs were filtered through a 70 micron mesh to remove any cellular debris. […] PBMCs in a 96-well plate were rested for 30 minutes in a 37° C., 5% CO2 incubator, then subsequently treated with 10 μI of indicated compound. After 2 hours 10 μL of LPS (0111:64) 1 mg/mL was added to test wells. After 24 hours of incubation at 37° C., 5% CO2, 100 μL of cell supernatant was collected and transferred to a 96-well plate (non-tissue treated, flat bottom). The plate was centrifuged at 350×g for 5 minutes at room temperature, and then the clear supernatant transferred to a new 96-well plate (non-tissue treated, flat bottom). The remaining cells were tested for viability using CellTiter-Glo® Luminescent Cell Viability Assay (Promega). The supernatant was analyzed for TNFα, IL-6 and IL-1β (kit […] Systems), using Luminex Immunoassay Technology (MAGPIX System).

[8] = system: IL-1β; experiment: Cytokine Release from Human PBMCs: IL-1β; type: cell-based; settings: LPS, 24 hours, Concentration 100 μM
Procedure: as §2

[9] = system: IL-6; experiment: Cytokine Release from Human PBMCs: IL-6; type: cell-based; settings: LPS, 24 hours, Concentration 100 μM
Procedure: as §2

[10] = target: T1, AhR (Homo sapiens, UniProt P35869); experiment: AhR Activation in Caco-2 Cells Through CYP1A1 mRNA Expression; settings: overnight, Conc. 500.0 μM
T1 sequence (P35869 11-848): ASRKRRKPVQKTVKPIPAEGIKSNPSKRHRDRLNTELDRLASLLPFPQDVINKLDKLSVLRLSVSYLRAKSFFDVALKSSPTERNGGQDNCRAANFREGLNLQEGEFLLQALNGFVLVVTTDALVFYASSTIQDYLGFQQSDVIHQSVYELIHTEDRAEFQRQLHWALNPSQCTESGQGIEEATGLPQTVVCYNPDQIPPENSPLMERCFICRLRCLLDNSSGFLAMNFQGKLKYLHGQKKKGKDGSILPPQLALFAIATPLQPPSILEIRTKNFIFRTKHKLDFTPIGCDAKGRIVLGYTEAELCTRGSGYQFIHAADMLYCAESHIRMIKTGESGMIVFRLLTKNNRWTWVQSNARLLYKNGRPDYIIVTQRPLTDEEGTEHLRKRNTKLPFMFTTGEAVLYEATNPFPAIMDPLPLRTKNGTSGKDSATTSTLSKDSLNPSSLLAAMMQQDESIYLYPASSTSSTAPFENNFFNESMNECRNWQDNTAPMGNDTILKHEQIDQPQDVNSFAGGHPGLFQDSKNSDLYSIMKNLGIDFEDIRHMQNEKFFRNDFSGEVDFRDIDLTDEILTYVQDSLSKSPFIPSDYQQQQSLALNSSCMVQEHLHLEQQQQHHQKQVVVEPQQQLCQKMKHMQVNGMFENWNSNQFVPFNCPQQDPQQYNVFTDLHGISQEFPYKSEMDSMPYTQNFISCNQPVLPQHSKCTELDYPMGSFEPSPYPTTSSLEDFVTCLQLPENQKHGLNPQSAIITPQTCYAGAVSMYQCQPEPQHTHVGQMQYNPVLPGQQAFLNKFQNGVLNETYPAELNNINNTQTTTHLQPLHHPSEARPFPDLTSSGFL
Procedure: Caco-2 cells from American Type Culture Collection (ATCC) were plated in a sterile tissue culture treated 96-well plate (ThermoFisher) at 8.0×10^5 cells per well, and grown overnight at 37° C., 5% CO2 in DMEM complete (Gibco) in order to achieve confluence. After the incubation medium was aspirated off of the Caco-2 monolayers, tissues were then washed with 200 μL of warmed PBS solution, and subsequently 190 μL of pre-warmed growth medium was added to each well. Compounds of interest were diluted at a 20× concentration in growth medium containing 2% DMSO, and 10 μL of compound solutions were added to respective wells in triplicate. Compounds where incubated overnight at 37° C., 5% CO2. 2-(1′H-indole-3′-carbonyl)-thiazole-4-carboxylic acid methyl ester (ITE) was used as the positive control for AhR activation at 1 and 100 μM concentrations. At the end of the incubation, medium was aspirated off of the Caco-2 cells, and washed with 100 μL of cold PBS solution. RNA was extracted via the TaqMan™ Gene Expression Cells-to-CT™ Kit (ThermoFisher) according to the manufacturer's protocol. The QuantStudio 6 Flex (Applied Biosciences) was used to analyze mRNA levels of CYP1A1 using GAPDH as the endogenous control. TaqMan™ probe sets for both genes were acquired from ThermoFisher. Samples were run in triplicate and data was analyzed using the QuantStudio software and reported as linear (Table 6) and log 2(ΔΔCT) values. Statistical analysis was performed using a two-tailed t-test comparing CYP1A1 levels in the presence of each individual compound to the vehicle negative control.

Molecule COC(=O)/C=C/C(=O)OCCN1C(=O)CCC1=O [Diroximel Fumarate, diroximel fumarate] has an AUClast [1] of 9381 ng·h/mL, a Cmax [1] of 17251 ng/mL and a Tmax [1] of 15 min.

In the case of C[C@@H](O)CCO [(R) 1,3-butanediol], the “% MIP-1α (Vehicle + LPS = 100%)” value ([2]; Conc. 100.0 μM) is reported as “− (− = >90% Vehicle)”, the “% MIP-1α (Vehicle + LPS = 100%)” value ([2]; Conc. 500.0 μM) is reported as “− (− = >90% Vehicle)” and the “Cell viability % DMSO” value ([3]; 100 μM) is reported as “= (90% > <110%: =)”. The “Cell viability % DMSO” value ([3]; 0.5 mM) was “= (90% > <110%: =)”, the activity at 100 µM ([3]; Homo sapiens, 144 h, TGF-β, IL-2, 100 μM, read-out: Treg induction % DMSO) was 90 to 110% and the activity at 500 µM ([3]; Homo sapiens, 144 h, TGF-β, IL-2, 0.5 mM, read-out: Treg induction % DMSO) was 90 to 110%. The “% IL-8 (Vehicle + LPS = 100%)” value ([4]; Conc. 100.0 μM) was “− (− = >90% Vehicle)”, the “% IL-8 (Vehicle + LPS = 100%)” value ([4]; Conc. 500.0 μM) was “− (− = >90% Vehicle)” and the “% Change in TEER from DMSO” value ([5]; 100 μM) was “− (<125%: −)”. The “% Change in TEER from DMSO” value ([5]; 0.5 mM) was “− (<125%: −)”, the “% MIP-1β (DMSO + LPS = 100%)” value ([6]; Conc. 100.0 μM) was “+ (+ = <90% Vehicle)” and the “% MIP-1β (DMSO + LPS = 100%)” value ([6]; Conc. 500.0 μM) was “+ (+ = <90% Vehicle)”. The “TNFα % of DMSO control” value [7] was “= ((=) 90% > <110% DMSO)”, the “IL1β % DMSO control” value [8] was “= ((=) 90% > <110% DMSO)” and the “IL6 % DMSO control” value [9] was “= ((=) 90% > <110% DMSO)”.

For CC(O)CCO (stereo not shown) [butanediol], the “Average CYP1A1 mRNA levels” value [10] was “− (− = <2-fold Vehicle)”.

With Oc1ccc(C=Cc2cc(O)cc(O)c2)cc1 [resveratrol] the “% MIP-1α (Vehicle + LPS = 100%)” value ([2]; Conc. 10.0 μM) was “+ (+ = <90% Vehicle)”, the “Cell viability % DMSO” value ([3]; 1 μM) was “− (<90%: −)” and the “Cell viability % DMSO” value ([3]; 10 μM) was “− (<90%: −)”. The activity at 1 µM ([3]; Homo sapiens, 144 h, TGF-β, IL-2, 1 μM, read-out: Treg induction % DMSO) was 110 to 130%, the activity at 10 µM ([3]; Homo sapiens, 144 h, TGF-β, IL-2, 10 μM, read-out: Treg induction % DMSO) was 110 to 130% and the “% IL-8 (Vehicle + LPS = 100%)” value ([4]; Conc. 10.0 μM) was “− (− = >90% Vehicle)”. For the same molecule, the “% Change in TEER from DMSO” value ([5]; 10 μM) was “− (<125%: −)”, the “% Change in TEER from DMSO” value ([5]; 100 μM) was “+++ (200%>: +++)” and the “% MIP-1β (DMSO + LPS = 100%)” value ([6]; Conc. 10.0 μM) was “++ (++ = <70% Vehicle)”. For the same molecule, the “TNFα % of DMSO control” value [7] was “+ ((+) 50% > <90% DMSO)”, the “IL1β % DMSO control” value [8] was “= ((=) 90% > <110% DMSO)” and the “IL6 % DMSO control” value [9] was “+ ((+) 50% > <90% DMSO)”.
